The subject of test [1] is HCT-116. Description: Cytotoxicity against human HCT116 cells after 72 hrs. The note with it: HCT-116, 72 h. Format: functional, cell-based.
Test [2] concerns HT-29. Nature of the test: Cytotoxicity against human HT-29 cells. Format: functional, cell-based.

Turning to `CC(=O)O[C@H]1C(=O)[C@@]2(C)[C@H]([C@H](OC(=O)c3ccccc3)[C@]3(O)C[C@H](OC(=O)[C@H](O)[C@@H](NC(=O)c4ccccc4)c4ccccc4)C(C)=C1C3(C)C)[C@]1(OC(=O)C(C)C)CO[C@@H]1C[C@@H]2O`, in test [1], it took 5.01 nM to reach half-maximal inhibition (IC50).
Same read-out and setting: the result for `CC(=O)O[C@H]1C(=O)[C@@]2(C)[C@H]([C@H](OC(=O)c3ccccc3)[C@]3(O)C[C@H](OC(=O)[C@H](O)[C@@H](NC(=O)c4ccccc4)c4ccccc4)C(C)=C1C3(C)C)[C@]1(OC(=O)c3ccccc3)CO[C@@H]1C[C@@H]2O` reads 407 nM.
As to `CC(=O)O[C@H]1C(=O)[C@@]2(C)[C@H]([C@H](OC(=O)c3ccccc3)[C@]3(O)C[C@H](OC(=O)[C@H](O)[C@@H](NC(=O)c4ccccc4)c4ccccc4)C(C)=C1C3(C)C)[C@]1(OC(=O)c3ccc(F)cc3)CO[C@@H]1C[C@@H]2O`, the half-inhibitory concentration (IC50) in test [1] is 794 nM. This IC50 is about 2-fold higher than that of the molecule before.
Molecule `CC(=O)O[C@H]1C(=O)[C@@]2(C)[C@H]([C@H](OC(=O)c3ccccc3)[C@]3(O)C[C@H](OC(=O)[C@H](O)[C@@H](NC(=O)c4ccccc4)c4ccccc4)C(C)=C1C3(C)C)[C@]1(OC(=O)C3CCC3)CO[C@@H]1C[C@@H]2O` gave a concentration for half-maximal inhibition (IC50) in test [1] of 1.51 nM.
`COC(=O)O[C@@]12CO[C@@H]1C[C@H](O)[C@@]1(C)C(=O)[C@H](OC(C)=O)C3=C(C)[C@@H](OC(=O)[C@H](O)[C@@H](NC(=O)c4ccccc4)c4ccccc4)C[C@@](O)([C@@H](OC(=O)c4ccccc4)[C@H]21)C3(C)C` [BMS-188797] gave an IC50 in test [1] of 2 nM. This IC50 and that of the molecule before are within 1.5-fold of each other.
The same measure, in the same setting: the figure for `CCCCC(=O)O[C@@]12CO[C@@H]1C[C@H](O)[C@@]1(C)C(=O)[C@H](OC(C)=O)C3=C(C)[C@@H](OC(=O)[C@H](O)[C@@H](NC(=O)c4ccccc4)c4ccccc4)C[C@@](O)([C@@H](OC(=O)c4ccccc4)[C@H]21)C3(C)C` is 2 nM.
Still for that read-out and setting: the figure for `C=C(C)C(=O)O[C@@]12CO[C@@H]1C[C@H](O)[C@@]1(C)C(=O)[C@H](OC(C)=O)C3=C(C)[C@@H](OC(=O)[C@H](O)[C@@H](NC(=O)c4ccccc4)c4ccccc4)C[C@@](O)([C@@H](OC(=O)c4ccccc4)[C@H]21)C3(C)C` is 4.47 nM; for `C/C=C/C(=O)O[C@@]12CO[C@@H]1C[C@H](O)[C@@]1(C)C(=O)[C@H](OC(C)=O)C3=C(C)[C@@H](OC(=O)[C@H](O)[C@@H](NC(=O)c4ccccc4)c4ccccc4)C[C@@](O)([C@@H](OC(=O)c4ccccc4)[C@H]21)C3(C)C` it is 2.29 nM.
The same measure, in the same setting: the result for `CC(=O)O[C@H]1C(=O)[C@@]2(C)[C@H]([C@H](OC(=O)c3ccccc3)[C@]3(O)C[C@H](OC(=O)[C@H](O)[C@@H](NC(=O)c4ccccc4)c4ccccc4)C(C)=C1C3(C)C)[C@]1(OC(=O)CF)CO[C@@H]1C[C@@H]2O` reads 7.08 nM; that for `CC(=O)O[C@H]1C(=O)[C@@]2(C)[C@H]([C@H](OC(=O)c3ccccc3)[C@]3(O)C[C@H](OC(=O)[C@H](O)[C@@H](NC(=O)c4ccccc4)c4ccccc4)C(C)=C1C3(C)C)[C@]1(OC(=O)C(Cl)(Cl)Cl)CO[C@@H]1C[C@@H]2O`, 3.98 nM.
Regarding `CC(=O)O[C@H]1C(=O)[C@@]2(C)[C@H]([C@H](OC(=O)c3ccccc3)[C@]3(O)C[C@H](OC(=O)[C@H](O)[C@@H](NC(=O)c4ccccc4)c4ccccc4)C(C)=C1C3(C)C)[C@]1(OC(=O)C3CCCC3)CO[C@@H]1C[C@@H]2O`, the concentration for half-maximal inhibition (IC50) in test [1] was 2 nM.
`C=CC(=O)O[C@@]12CO[C@@H]1C[C@H](O)[C@@]1(C)C(=O)[C@H](OC(C)=O)C3=C(C)[C@@H](OC(=O)[C@H](O)[C@@H](NC(=O)c4ccccc4)c4ccccc4)C[C@@](O)([C@@H](OC(=O)c4ccccc4)[C@H]21)C3(C)C` had an IC50 in test [1] of 6.03 nM.
On the same count and under the same terms, the result for `CC(=O)O[C@H]1C(=O)[C@@]2(C)[C@H]([C@H](OC(=O)c3ccccc3)[C@]3(O)C[C@H](OC(=O)[C@H](O)[C@@H](NC(=O)c4ccccc4)c4ccccc4)C(C)=C1C3(C)C)[C@]1(OC(=O)NC3CCC3)CO[C@@H]1C[C@@H]2O` reads 9.12 nM; that for `CCCOC(=O)O[C@@]12CO[C@@H]1C[C@H](O)[C@@]1(C)C(=O)[C@H](OC(C)=O)C3=C(C)[C@@H](OC(=O)[C@H](O)[C@@H](NC(=O)c4ccccc4)c4ccccc4)C[C@@](O)([C@@H](OC(=O)c4ccccc4)[C@H]21)C3(C)C`, 2.57 nM.
In test [2], `CC(=O)N[C@@H](c1ccccc1)[C@@H](O)C(=O)O[C@H]1C[C@@]2(O)[C@@H](OC(=O)c3ccccc3)[C@@H]3[C@]4(OC(C)=O)CO[C@@H]4C[C@H](O)[C@@]3(C)[C@@H](O)[C@H](OC(C)=O)C(=C1C)C2(C)C` showed a half-inhibitory concentration (IC50) of 0.339 nM.
Take `CCCCCC(=O)N[C@@H](C=C(C)C)[C@@H](O)C(=O)O[C@@H]1C(C)=C2[C@@H](OC(=O)N(C)C)C(=O)[C@@]3(C)[C@H]([C@H](OC(=O)c4ccccc4)[C@@]4(OC(=O)O[C@@H]14)C2(C)C)[C@]1(OC(C)=O)CO[C@@H]1C[C@@H]3O`: the IC50 in test [2] was 5.13 nM.
In the case of `CC(=O)O[C@H]1C(=O)[C@@]2(C)[C@H]([C@H](OC(=O)c3ccccc3)[C@]3(O)C[C@H](OC(=O)[C@H](O)[C@@H](NC(=O)c4ccccc4)c4ccccc4)C(C)=C1C3(C)C)[C@]1(OC(=O)C3CC3)CO[C@@H]1C[C@@H]2O`, the IC50 in test [1] is 1 nM.
`CCCC(=O)O[C@@]12CO[C@@H]1C[C@H](O)[C@@]1(C)C(=O)[C@H](OC(C)=O)C3=C(C)[C@@H](OC(=O)[C@H](O)[C@@H](NC(=O)c4ccccc4)c4ccccc4)C[C@@](O)([C@@H](OC(=O)c4ccccc4)[C@H]21)C3(C)C` showed a half-inhibitory concentration (IC50) in test [1] of 1.1 nM.
Molecule `CCOC(=O)O[C@@]12CO[C@@H]1C[C@H](O)[C@@]1(C)C(=O)[C@H](OC(C)=O)C3=C(C)[C@@H](OC(=O)[C@H](O)[C@@H](NC(=O)c4ccccc4)c4ccccc4)C[C@@](O)([C@@H](OC(=O)c4ccccc4)[C@H]21)C3(C)C` gave an IC50 in test [1] of 1 nM.
In test [2], `CC(=O)O[C@@]12CO[C@@H]1C[C@H](O)[C@@]1(C)C(=O)[C@H](O)C3=C(C)[C@@H](OC(=O)[C@H](O)[C@H](CC(C)C)NC(=O)C(C)(C)C)[C@@H]4OC(=O)O[C@]4([C@@H](OC(=O)c4ccccc4)[C@H]21)C3(C)C` showed an IC50 of 4.17 nM.
As for `CC(=O)O[C@@]12CO[C@@H]1C[C@H](O)[C@@]1(C)C(=O)[C@H](O)C3=C(C)[C@@H](OC(=O)[C@H](O)[C@@H](NC(=O)OC(C)(C)C)C(F)(F)F)C[C@@](O)([C@@H](OC(=O)c4cccc(N=[N+]=[N-])c4)[C@H]21)C3(C)C`, the 50% inhibitory concentration (IC50) in test [2] was 0.708 nM. This IC50 lies about 5.9-fold lower than the previous one.
`CC(=O)O[C@@H]1C2=C(C)[C@@H](OC(=O)[C@H](O)[C@@H](NC(=O)OCC(C)C)c3ccccc3)C[C@@](O)([C@@H](OC(=O)c3ccccc3)[C@@H]3[C@]4(OC(C)=O)CO[C@@H]4C[C@H](O)[C@@]3(C)[C@H]1O)C2(C)C`: the IC50 in test [2] is 0.00269 nM. Compared with the last molecule, the IC50 is about 260-fold lower.
`CCCCCC(=O)O[C@@]12CO[C@@H]1C[C@H](O)[C@@]1(C)C(=O)[C@H](OC(C)=O)C3=C(C)[C@@H](OC(=O)[C@H](O)[C@@H](NC(=O)c4ccccc4)c4ccccc4)C[C@@](O)([C@@H](OC(=O)c4ccccc4)[C@H]21)C3(C)C`: in test [1], the IC50 is 6.03 nM. That is a single-digit nanomolar value.
In turn, `CCC[C@H](NC(=O)C(C)(C)C)[C@@H](O)C(=O)O[C@@H]1C(C)=C2[C@@H](OC(C)=O)C(=O)[C@@]3(C)[C@H]([C@H](OC(=O)c4ccccc4)[C@@]4(OC(=O)O[C@@H]14)C2(C)C)[C@]1(OC(C)=O)CO[C@@H]1C[C@@H]3O` had a half-maximal inhibitory concentration (IC50) in test [2] of 4.79 nM.
Regarding `CC(=O)O[C@H]1C(=O)[C@@]2(C)[C@H]([C@H](OC(=O)c3ccccc3)[C@]3(O)C[C@H](OC(=O)[C@H](O)[C@@H](NC(=O)c4ccccc4)c4ccccc4)C(C)=C1C3(C)C)[C@]1(OC(=O)n3ccnc3)CO[C@@H]1C[C@@H]2O`, in test [1], 794 nM corresponded to half-maximal inhibition (IC50).
For the molecule `CCC[C@H](NC(=O)C(C)(C)C)[C@@H](O)C(=O)O[C@@H]1C(C)=C2[C@@H](O)C(=O)[C@@]3(C)[C@H]([C@H](OC(=O)c4ccccc4)[C@@]4(OC(=O)O[C@@H]14)C2(C)C)[C@]1(OC(C)=O)CO[C@@H]1C[C@@H]3O`, the concentration for half-maximal inhibition (IC50) in test [2] was 3.8 nM.
On to `CCC(=O)O[C@@]12CO[C@@H]1C[C@H](O)[C@@]1(C)C(=O)[C@H](OC(C)=O)C3=C(C)[C@@H](OC(=O)[C@H](O)[C@@H](NC(=O)c4ccccc4)c4ccccc4)C[C@@](O)([C@@H](OC(=O)c4ccccc4)[C@H]21)C3(C)C`, for which half-maximal inhibition in test [1] (IC50) required 2 nM.

By IC50 is commonly meant the concentration at which inhibition is half-maximal.

Source of the values: ChEMBL document CHEMBL1157046, “QSAR modeling of taxane analogues against colon cancer” (Eur J Med Chem, 2010).
